“Also recorded” adds a separate entry of the source.
What was measured:
I2 imidazoline receptors [1] = experiment: inhibition of 3H-idazoxan (5 nM) binding to rat aortic smooth muscle cell membranes; conditions: for inhibition of 3H-idazoxan binding, in words / Ki: 3H-idazoxan 5 nM; for Ki: Table 2, rat aortic smooth muscle cell membranes, read-out: Ki
Experimental: (§1) Binding to I2 imidazoline receptors is determined by the following assay. Membranes are prepared from cultured cells for ligand binding as described in Regunathan, S., et al, Biochem. Pharmacol. 45, 1667-1675 (1993) and Regunathan, S., et al, J. Neurosci. Res. 34, 681-688 (1993) and the disclosure in these on this is incorporated herein by reference. In particular, harvested rat aortic smooth muscle cells are homogenized in Hepes-sucrose buffer (pH 7.4) with a Teflon-glass homogenizer and centrifuged at 1000 × g for 10 minutes. The pellets are suspended in ice-cold Tris-HCl buffer (pH 7.7) with 5mM ethylene diamine tetracetic acid and homogenized using a Polytron (Brinkman Instruments) for 10 seconds. The homogenate is centrifuged at 40,000 × g for 30 minutes to produce a membrane pellet. The membrane pellet is washed three times by resuspending in buffer and re-centrifuging. The washed pellet is suspended in fresh Tris-HCl buffer (pH 7.4) to provide approximately 100 μg protein per assay tube. Binding assays are performed in Tris-HCl buffer (pH 7.7) using 5 nM of […]. Non-specific binding is defined by 100 μM of unlabelled idazoxan which will inhibit the specific binding of ^3 H-idazoxan. Thus the binding remaining in the presence 100 μM of idazoxan is due to non-specific binding and this will be substracted from total binding to calculate the specific binding. Following incubation at 25° C. for 30 minutes, reaction is terminated by rapid vacuum filtration over Whatman GF/B filters and washed with 10 ml of ice-cold buffer. Filters are suspended in scintillation fluid and radioactivity counted in a liquid scintillation counter. Membrane protein is assayed by Coomassie Blue method (Pierce) using bovine serum albumin as standard.
Determination of inhibition constant (Ki) for each drug is determined as follows: The binding of ^3 H-idazoxan to membranes of vascular smooth muscle cells is determined in the presence of 0.1 nM to 100 μM concentrations of potential drug. The percent inhibition of specific binding of ^3 H-idazoxan by each concentration is calculated and plotted against concentration. The data is analyzed by non-linear curve fitting program, LIGAND and the IC50 value for each potential drug is calculated. The affinity for each drug (Ki) for I2 imidazoline receptors is calculated using the formula Ki =IC50 /1+L/Kd where L is the concentration of ^3 H-idazoxan used for binding and Kd is the dissociation constant for ^3 H-idazoxan for I2 imidazoline receptors. The dissociation constant (Kd) is determined by Scatchard analysis of the saturation binding of ^3 H-idazoxan using the formula [formula] where B and F are the amount of bound and free ligand, respectively, and Bmax is the number of binding sites.
(§2) Primary cultures of rat-aortic smooth muscle cells were prepared by a modification (described in Erlinge, Do, et al, Am. J. Physiol. 265, H1089-1097, 1993) of the method of Meyer-Lehnert and Schrier (Meyer-Lehnert, H., et al, Hypertension 13,350-361, 1989), the disclosure of these cited articles being incorporated herein by reference. Briefly, rats were killed by anesthetic overdose and the aorta were removed and incubated with collagenase (2 mg/ml) in Dulbecco's modified Eagle's minimum essential medium (DMEM). The vessel was stripped of adventitia, cut longitudinally and the intima scraped away. After further collagenase treatment, the remaining tissue was passed 20 times through 18 and 16 gauge needles. The resulting cell suspension was centrifuged at 500 × g for 5 minutes and resuspended in DMEM containing penicillin (100 units/ml), streptomycin (100 μg/ml), 2 mM L-glutamine and 10% fetal calf serum. The suspended cells were plated in T-75 flasks, cultured until confluent, and subcultured in 100 mm plates. The confluent cells were harvested and membranes were prepared. Cell viability was determined by trypan blue exclusion.

[2] = test system: rat aortic smooth muscle cells; experiment: serum-stimulated proliferation, 3H-thymidine incorporation into DNA; assay type: cell-based; conditions: 10% fetal calf serum stimulated; for IC50: Rattus norvegicus, read-out: 3H-thymidine incorporated (IC50); for IC50 / 3H-thymidine incorporated (IC50), N symbol: 24 h
Experimental: (§3) Inhibition of serum-stimulated proliferation of rat aortic smooth muscle cells is determined as follows: The antiproliferative effect of potential drug is determined by measuring the incorporation of ^3 H-thymidine into cellular DNA. Exposure of quiescent vascular smooth muscle cell to serum, which contains many growth factors, results in a large increase in cellular proliferation as measured by ^3 H-thymidine incorported into DNA. The inhibitory effect of potential drug on serum-stimulated proliferation is tested by adding a drug before the addition of serum and determining if the serum-stimulated proliferation is reduced. […] In that event, antagonizing of the antiproliferative effect of idazoxan is determined by adding antagonist before the addition of idazoxan to serum-stimulated vascular smooth muscle cells.
In this experiment, the proliferation of vascular smooth muscle cells was determined by measuring DNA replication. The incorporation of ^3 H-thymidine into DNA was used to measure the replication of DNA as described in Erlinge, D., et al, Am. J. Physiol. 265, H1089-H1097 (1993) which is incorporated herein by reference.
(§4) Rat aortic smooth muscle cells prepared as described in In Vitro Example 1 were plated into 24-well plates at a density of about 30,000 cells/well in 10% fetal calf serum (FCS). After 48 hours, the cells were starved in 0.5% FCS for another 48 hours to decrease proliferation and induce quiescence. The medium was replaced by serum-free medium 24 hours prior to addition of drug (drugs are described below) and 10% fetal calf serum or only 10% fetal calf serum in the case of the control. The cells were then incubated for 24 hours and ^3 H-thymidine (1 μCi/well) was added at hour 20. At the end of the 24 hour period, the medium was aspirated and the cells were washed three times with phosphate-buffered saline and twice with ice-cold trichloroacetic acid. Fixed cells were then solubilized in 0.2M NaOH and sonicated. A 100 μl aliquot was used for scintillation counting.

α2 -adrenergic receptors = experiment: specific binding of 3H-PAC and 3H-rauwolscine to smooth muscle cell membranes; set-up: species or system rat; conditions: for specific binding of 3H-PAC / 3H-rauwolscine: 5 nM ligand, non-specific binding defined by 100 μM cold ligand; for binding selectivity of radioligand, in words (α2-adrenergic receptors): with epinephrine competition
Experimental: as §2, with “exclusion. Smooth muscle cells were phenotypically defined by immunostaining with anti-smooth muscle actin (Sigma). The cultured cells were usually used for only about 10 passages after which they were replaced by freshly prepared cells.” for “exclusion.”
Membranes were prepared from the cultured cells as described in Regunathan et al, Biochem. Pharmacol. 45, 1667-1675 (1993). Membranes were incubated with 5 nM of ^3 H-idazoxan, ^3 H-PAC or ^3 H-rauwolscine with non-specific binding defined by 100 μM cold ligand as described above.

[3] = test system: rat aortic smooth muscle cells; experiment: antagonism of the antiproliferative effect in serum-stimulated smooth muscle cells; assay type: cell-based
Experimental: as §3
as §4, with “After” for “Rat aortic smooth muscle cells prepared as described in In Vitro Example 1 were plated into 24-well plates at a density of about 30,000 cells/well in 10% fetal calf serum (FCS). After”
To test this, the effect of tolazoline (100 μM) on the concentration/response curve was determined.

I2 imidazoline receptors [4] = experiment: saturation/specific binding of 3H-idazoxan to smooth muscle cell membranes (Scatchard analysis); set-up: species or system rat
Experimental: as §1, with “Membrane protein is assayed by Coomassie Blue method (Pierce) using bovine serum albumin as standard.” left out
Primary cultures of rat-aortic smooth muscle cells were prepared by a modification (described in Erlinge, Do, et al, Am. J. Physiol. 265, H1089-1097, 1993) of the method of Meyer-Lehnert and Schrier (Meyer-Lehnert, H., et al, Hypertension 13,350-361, 1989), the disclosure of these cited articles being incorporated herein by reference. […] Cell viability was determined by trypan blue exclusion.

Compound | inhibition of 3H-idazoxan binding, in words (I2 imidazoline receptors [1]) | Ki (I2 imidazoline receptors [1]) [µM] | inhibition of vascular smooth muscle cell proliferation, in words [2] | 3H-thymidine incorporated (IC50), N symbol [2] | other results
N=C(N)NC(=O)c1nc(Cl)c(N)nc1N [Amiloride] | low | 75 ± 9.6 | – | – | –
c1ccc(C2CC2)c(OCC2=NCCN2)c1 [Cirazoline, cyclopropyl phenoxy imidazoline] | – | – | – | – | IC50 [2]: 286 ± 19 µM
Clc1cccc(Cl)c1N=C1NCCN1 [Clonidine] | – | 2.5 ± 0.65 | had no effect | N | –
CNC[C@H](O)c1ccc(O)c(O)c1 [Epinephrine] | – | – | – | – | reduction of 3H-idazoxan binding (I2 imidazoline receptors [1]; even at 100 μM epinephrine, failed to reduce by greater than): ≤ 10%; inhibition of specific binding of 3H-PAC (α2 -adrenergic receptors; epinephrine 10 μM): completely inhibited; inhibition of specific binding of 3H-rauwolscine (α2 -adrenergic receptors; epinephrine 10 μM): completely inhibited
N=C(N)N/N=C/c1c(Cl)cccc1Cl [Guanabenz] | low | 51 ± 6.5 | – | – | –
COc1nc(C)nc(Cl)c1N=C1NCCN1 [Moxonidine] | low | 55 ± 4 | had no effect | N | –
c1ccc2c(CC3=NCCN3)cccc2c1 [Naphazoline, 2-(1-naphthylmethyl) imidazoline] | – | – | – | – | IC50 [2]: 52.3 ± 5.6 µM
Cc1ccc(N(CC2=NCCN2)c2cccc(O)c2)cc1 [Phentolamine] | – | 10.5 ± 1.4 | – | N | –
COC(=O)[C@H]1[C@H]2C[C@H]3c4[nH]c5ccccc5c4CCN3C[C@H]2CC[C@@H]1O [Rauwolscine] | without effect | > 100 | had no effect | N | effect of rauwolscine on the anti-proliferative response [3]: blocked
C1COC(NC(C2CC2)C2CC2)=N1 [Rilmenidine] | low | 85 ± 9 | had no effect | N | –
c1ccc(CC2=NCCN2)cc1 [Tolazoline] | binding with high affinity | 0.256 ± 0.023 | without any effect; also recorded: failed to inhibit cellular proliferation | N | effect on the concentration/response curve for idazoxan ([3]; tolazoline 100 μM): markedly shifted the concentration/response curve for idazoxan to the right
Nc1cc(Cl)c(NC2=NCCN2)c(Cl)c1 [^3 H-PAC] | – | – | – | – | specific binding of 3H-PAC / 3H-rauwolscine (α2 -adrenergic receptors): greater than 70%; binding selectivity of radioligand, in words (α2-adrenergic receptors) (α2 -adrenergic receptors): primarily bind to α2 -adrenergic receptors
c1ccc2c(c1)OCC(C1=NCCN1)O2 (stereo not drawn) [^3 H-idazoxan] | – | – | – | – | specific binding of 3H-idazoxan (I2 imidazoline receptors [4]; 5 nM ligand, non-specific binding defined by 100 μM cold ligand): greater than 70%; Kd (I2 imidazoline receptors [4]; Scatchard analysis, single-site fit, in presence of 10 μM epinephrine): 8.9 ± 1.2 nM; binding selectivity of radioligand, in words (non-adrenergic sites) (I2 imidazoline receptors [4]; with epinephrine competition): binds almost exclusively to non-adrenergic sites
COC(=O)C1C(O)CCC2CN3CCc4c([nH]c5ccccc45)C3CC21 (stereo not drawn) [^3 H-rauwolscine] | – | – | – | – | specific binding of 3H-PAC / 3H-rauwolscine (α2 -adrenergic receptors): greater than 70%; binding selectivity of radioligand, in words (α2-adrenergic receptors) (α2 -adrenergic receptors): primarily bind to α2 -adrenergic receptors
